From patent US20230106506A1, “NOVEL PqsR INVERSE AGONISTS” (Helmholtz-Zentrum Fur Infektionsforschung GmbH, priority 2020, published 2023)

Tests used:
[1] = Kinetic turbidimetric aqueous solubility; format: physicochemical; conditions: aqueous buffer, kinetic from dmso stock; PBS buffer, final DMSO 2%, absorbance 620 nm; read-out: Kinetic Turbidimetric Aqueous Solubility at room temperature for 5 min
Experimental: Kinetic Turbidimetric Aqueous Solubility at room temperature for 5 min. […] Data was analyzed by fitting a four parameter sigmoidal function to the measured and normalized absorbances and AUC calculation providing access to Log S (decadic logarithm of the solubility).

[2] = Metabolic stability in mouse liver microsomes (MLM); format: in vitro ADME; conditions: 1 μM compound, 0.5 mg/mL MLM, 1 mM NADPH, 37° C., read-out: half-life (t1/2) towards MLM
Experimental: For the evaluation of phase I metabolic stability, the compound (1 μM) was incubated with 0.5 mg/mL MLM (Corning) and 1 mM NADPH at 37° C. for 0, 5, 10, 15 and 30 min. The metabolic stability of Verapamil, Diphenhydramine and Benzydamine (1 μM each) were determined in parallel to confirm the enzymatic activity of the MLM. The incubation was stopped by addition of 2 volumes of acetonitrile containing internal standard (1 μM Leucine Enkephaline). Samples were centrifuged (15 min, 3,500 rpm). Concentration of the remaining test compound at the different time points was analyzed by HPLC-MS/MS and used to determine half-life (t1/2).

[3] = test system: P. aeruginosa pyocyanin production; assay: Pyocyanin assay; format: cell-based, P. aeruginosa strain PA14; conditions: Pseudomonas aeruginosa, PA14, 16 h, read-out: IC50-value towards pyocyanin production
Experimental: Inhibition of P. aeruginosa pyocyanin production by compounds was determined photometrically as described before. In short, an overnight culture of PA14 in PPGAS medium was washed, diluted in medium to a start OD600 of 0.02, and incubated for 16 h (37° C., 200 rpm, relative humidity 75%) in the presence of test compounds. Then, cultures were extracted with chloroform and re-extracted with 0.2 M HCl. Protonated red colored pyocyanin was determined by measuring OD520 and normalizing to OD600.

SMILES	solubility at 5 min [1]	half-life at 1 µM [2]	IC50 [3]
CC(C)Oc1ccc(-n2cc(CNc3cc(-n4cncn4)nc(C(F)(F)F)c3)nn2)cc1 [Compound 06, N-((1-(4-Isopropoxyphenyl)-1H-1,2,3-triazol-4-yl)methyl)-2-(1H-1,2,4-triazol-1-yl)-6-(trifluoromethyl)pyridin-4-amine]	> 10 µM	1.02 to 1.67 h	
CC(C)Oc1ccc(-c2ncc(CNc3cc(-c4nn[nH]n4)nc(C(F)(F)F)c3)s2)cc1 [Compound 19]	≥ 100 µM	> 1.67 h	
CC(C)Oc1ccc(-c2ncc(CNc3cc(-c4cc[nH]n4)nc(C(F)(F)F)c3)cn2)cc1Cl [Compound 32, N-((2-(3-Chloro-4-isopropoxyphenyl)pyrimidin-5-yl)methyl)-2-(1H-pyrazol-3-yl)-6-(trifluoromethyl)pyridin-4-amine]		1.02 to 1.67 h	0.201 to 0.5 µM
CC(C)Oc1ccc(-c2ncc(CNc3cc(-c4cnc[nH]4)nc(C(F)(F)F)c3)cn2)cc1 [Compound 41, 2-(1H-Imidazol-5-yl)-N-((2-(4-isopropoxyphenyl)pyrimidin-5-yl)methyl)-6-(trifluoromethyl)pyridin-4-amine]	> 10 µM	> 1.67 h	
CC(C)Oc1ccc(-c2cnc(CNc3cc(-n4cncn4)nc(C(F)(F)F)c3)nc2)cc1 [Compound 42, N-((5-(4-Isopropoxyphenyl)pyrimidin-2-yl)methyl)-2-(1H-1,2,4-triazol-1-yl)-6-(trifluoromethyl)pyridin-4-amine]		> 1.67 h	0.201 to 0.5 µM
CC(C)Oc1ccc(-c2cnc(CNc3cc(-c4cnn(C)c4)nc(C(F)(F)F)c3)nc2)cc1 [Compound 44, N-((5-(4-Isopropoxyphenyl)pyrimidin-2-yl)methyl)-2-(1-methyl-1H-pyrazol-4-yl)-6-(trifluoromethyl)pyridin-4-amine]		> 1.67 h	0.201 to 0.5 µM
CC(C)Oc1ccc(-c2cnc(CNc3cc(-n4ccnc4)nc(C(F)(F)F)c3)nc2)cc1 [Compound 45, 2-(1H-Imidazol-1-yl)-N-((5-(4-isopropoxyphenyl)pyrimidin-2-yl)methyl)-6-(trifluoromethyl)pyridin-4-amine]		> 1.67 h	0.201 to 0.5 µM
CC(C)Oc1ccc(-c2cnc(CNc3cc(-n4ccnc4)nc(C(F)(F)F)c3)nc2)cc1Cl [Compound 46, N-((5-(3-Chloro-4-isopropoxyphenyl)pyrimidin-2-yl)methyl)-2-(1H-imidazol-1-yl)-6-(trifluoromethyl)pyridin-4-amine]		1.02 to 1.67 h	0.201 to 0.5 µM
Fc1cccc(Oc2ccc(-c3ncc(CNc4cc(-c5cn[nH]c5)nc(C(F)(F)F)c4)cn3)cc2)c1 [Compound 52, N-((2-(4-(3-Fluorophenoxy)phenyl)pyrimidin-5-yl)methyl)-2-(1H-pyrazol-4-yl)-6-(trifluoromethyl)pyridin-4-amine]		> 1.67 h	0.101 to 0.2 µM
Fc1ccc(Oc2ccc(-c3ncc(CNc4cc(-c5cn[nH]c5)nc(C(F)(F)F)c4)cn3)cc2)cc1 [Compound 53, N-((2-(4-(4-Fluorophenoxy)phenyl)pyrimidin-5-yl)methyl)-2-(1H-pyrazol-4-yl)-6-(trifluoromethyl)pyridin-4-amine]		> 1.67 h	0.101 to 0.2 µM
CC(C)Oc1ccc(-c2ncc(CNc3cc(-n4cncn4)nc(C(F)(F)F)c3)cn2)cc1 [Compound 59, N-((2-(4-Isopropoxyphenyl)pyrimidin-5-yl)methyl)-2-(1H-1,2,4-triazol-1-yl)-6-(trifluoromethyl)pyridin-4-amine]		> 1.67 h	0.101 to 0.2 µM
CC(C)Oc1ccc(-c2ncc(CNc3cc(-c4cncs4)nc(C(F)(F)F)c3)cn2)cc1 [Compound 70, N-((2-(4-Isopropoxyphenyl)pyrimidin-5-yl)methyl)-2-(thiazol-5-yl)-6-(trifluoromethyl)pyridin-4-amine]		> 1.67 h	0.101 to 0.2 µM
